Test results: ChEMBL document CHEMBL5724914, “Linking interpersonal differences in gut microbiota composition and drug biotransformation activity” (2024)
One block for each molecule: values may come before it.

Columns and labels:
[1] = (§1) The drug is tested on WLS-370 corresponding to human gut metagenome with ENA study accession number: PRJEB37062 and ENA sample accession number: ERS12561793 for biotransformation under anaerobic condition. The drug concentrations were measured over 9 timepoints collected between 0 and 24 hours of incubation by liquid-chromatography-coupled mass spectrometry (LC–MS); conditions: 2 µM
[2] = as §1, with “WLS-350” for “WLS-370”, “ERS12561789” for “ERS12561793”; conditions: 2 µM
[3] = as §1, with “WLS-310” for “WLS-370”, “ERS12561785” for “ERS12561793”; conditions: 2 µM
[4] = as §1, with “WLS-240” for “WLS-370”, “ERS12561773” for “ERS12561793”; conditions: 2 µM
[5] = as §1, with “WLS-220” for “WLS-370”, “ERS12561769” for “ERS12561793”; conditions: 2 µM
[6] = as §1, with “WLS-170” for “WLS-370”, “ERS12561762” for “ERS12561793”; conditions: 2 µM
[7] = as §1, with “WLS-098” for “WLS-370”, “ERS12561754” for “ERS12561793”; conditions: 2 µM
[8] = as §1, with “WLS-090” for “WLS-370”, “ERS12561753” for “ERS12561793”; conditions: 2 µM
[9] = as §1, with “WLS-086” for “WLS-370”, “ERS12561752” for “ERS12561793”; conditions: 2 µM
[10] = as §1, with “WLS-082” for “WLS-370”, “ERS12561751” for “ERS12561793”; conditions: 2 µM
[11] = as §1, with “WLS-077” for “WLS-370”, “ERS12561750” for “ERS12561793”; conditions: 2 µM
[12] = as §1, with “WLS-073” for “WLS-370”, “ERS12561749” for “ERS12561793”; conditions: 2 µM
[13] = as §1, with “WLS-069” for “WLS-370”, “ERS12561748” for “ERS12561793”; conditions: 2 µM
[14] = as §1, with “WLS-052” for “WLS-370”, “ERS12561747” for “ERS12561793”; conditions: 2 µM
[15] = as §1, with “WLS-039” for “WLS-370”, “ERS12561746” for “ERS12561793”; conditions: 2 µM
[16] = as §1, with “WLS-038” for “WLS-370”, “ERS12561745” for “ERS12561793”; conditions: 2 µM
[17] = as §1, with “WLS-027” for “WLS-370”, “ERS12561744” for “ERS12561793”; conditions: 2 µM
[18] = as §1, with “WLS-010” for “WLS-370”, “ERS12561743” for “ERS12561793”; conditions: 2 µM
[19] = as §1, with “WLS-007” for “WLS-370”, “ERS12561742” for “ERS12561793”; conditions: 2 µM
[20] = as §1, with “WLS-006” for “WLS-370”, “ERS12561741” for “ERS12561793”; conditions: 2 µM
[21] = human gut metagenome, 24 h, 2 µM
[22] = human gut metagenome, 24 h, 2 µM; remark: listed apart in the source
[23] = human gut metagenome, 24 h, 2 µM; remark: listed apart in the source
[24] = human gut metagenome, 24 h, 2 µM; remark: listed apart in the source
[25] = human gut metagenome, 24 h, 2 µM; remark: listed apart in the source
[26] = human gut metagenome, 24 h, 2 µM; remark: listed apart in the source
[27] = human gut metagenome, 24 h, 2 µM; remark: listed apart in the source
[28] = human gut metagenome, 24 h, 2 µM; remark: listed apart in the source
[29] = human gut metagenome, 24 h, 2 µM; remark: listed apart in the source
[30] = human gut metagenome, 24 h, 2 µM; remark: listed apart in the source
[31] = human gut metagenome, 24 h, 2 µM; remark: listed apart in the source
[32] = human gut metagenome, 24 h, 2 µM; remark: listed apart in the source
[33] = human gut metagenome, 24 h, 2 µM; remark: listed apart in the source
[34] = human gut metagenome, 24 h, 2 µM; remark: listed apart in the source
[35] = human gut metagenome, 24 h, 2 µM; remark: listed apart in the source
[36] = human gut metagenome, 24 h, 2 µM; remark: listed apart in the source
[37] = human gut metagenome, 24 h, 2 µM; remark: listed apart in the source
[38] = human gut metagenome, 24 h, 2 µM; remark: listed apart in the source
[39] = human gut metagenome, 24 h, 2 µM; remark: listed apart in the source
[40] = human gut metagenome, 24 h, 2 µM; remark: listed apart in the source
[41] = human gut metagenome, 24 h, 2 µM; remark: listed apart in the source
[42] = human gut metagenome, 24 h, 2 µM; remark: listed apart in the source
[43] = human gut metagenome, 24 h, 2 µM; remark: listed apart in the source
[44] = human gut metagenome, 24 h, 2 µM; remark: listed apart in the source
[45] = human gut metagenome, 24 h, 2 µM; remark: listed apart in the source
[46] = human gut metagenome, 24 h, 2 µM; remark: listed apart in the source
[47] = human gut metagenome, 24 h, 2 µM; remark: listed apart in the source
[48] = human gut metagenome, 24 h, 2 µM; remark: listed apart in the source
[49] = human gut metagenome, 24 h, 2 µM; remark: listed apart in the source
[50] = human gut metagenome, 24 h, 2 µM; remark: listed apart in the source
[51] = human gut metagenome, 24 h, 2 µM; remark: listed apart in the source
[52] = human gut metagenome, 24 h, 2 µM; remark: listed apart in the source
[53] = human gut metagenome, 24 h, 2 µM; remark: listed apart in the source
[54] = human gut metagenome, 24 h, 2 µM; remark: listed apart in the source
[55] = human gut metagenome, 24 h, 2 µM; remark: listed apart in the source
[56] = human gut metagenome, 24 h, 2 µM; remark: listed apart in the source
[57] = human gut metagenome, 24 h, 2 µM; remark: listed apart in the source
[58] = human gut metagenome, 24 h, 2 µM; remark: listed apart in the source
[59] = human gut metagenome, 24 h, 2 µM; remark: listed apart in the source
[60] = human gut metagenome, 24 h, 2 µM; remark: listed apart in the source
Further: call rule not given here.

SMILES: CN1CCN(C2=Nc3ccccc3Oc3ccc(Cl)cc32)CC1.O=C(O)CCC(=O)O [LOXAPINE SUCCINATE]
Bacterial Biotransformation [1]: Compound NOT metabolized
Bacterial Biotransformation [2]: Compound NOT metabolized
Bacterial Biotransformation [3]: Compound NOT metabolized
Bacterial Biotransformation [4]: Compound NOT metabolized
Bacterial Biotransformation [5]: Compound NOT metabolized
Bacterial Biotransformation [6]: Compound NOT metabolized
Bacterial Biotransformation [7]: Compound NOT metabolized
Bacterial Biotransformation [8]: Compound NOT metabolized
Bacterial Biotransformation [9]: Compound NOT metabolized
Bacterial Biotransformation [10]: Compound NOT metabolized
Bacterial Biotransformation [11]: Compound NOT metabolized
Bacterial Biotransformation [12]: Compound NOT metabolized
Bacterial Biotransformation [13]: Compound NOT metabolized
Bacterial Biotransformation [14]: Compound NOT metabolized
Bacterial Biotransformation [15]: Compound NOT metabolized
Bacterial Biotransformation [16]: Compound NOT metabolized
Bacterial Biotransformation [17]: Compound NOT metabolized
Bacterial Biotransformation [18]: Compound NOT metabolized
Bacterial Biotransformation [19]: Compound NOT metabolized
Bacterial Biotransformation [20]: Compound NOT metabolized
Bacterial Biotransformation [21]: Compound NOT metabolized
Bacterial Biotransformation [22]: Compound NOT metabolized
Bacterial Biotransformation [23]: Compound NOT metabolized
Bacterial Biotransformation [24]: Compound NOT metabolized
Bacterial Biotransformation [25]: Compound NOT metabolized
Bacterial Biotransformation [26]: Compound NOT metabolized
Bacterial Biotransformation [27]: Compound NOT metabolized
Bacterial Biotransformation [28]: Compound NOT metabolized
Bacterial Biotransformation [29]: Compound NOT metabolized
Bacterial Biotransformation [30]: Compound NOT metabolized
Bacterial Biotransformation [31]: Compound NOT metabolized
Bacterial Biotransformation [32]: Compound NOT metabolized
Bacterial Biotransformation [33]: Compound NOT metabolized
Bacterial Biotransformation [34]: Compound NOT metabolized
Bacterial Biotransformation [35]: Compound NOT metabolized
Bacterial Biotransformation [36]: Compound NOT metabolized
Bacterial Biotransformation [37]: Compound NOT metabolized
Bacterial Biotransformation [38]: Compound NOT metabolized
Bacterial Biotransformation [39]: Compound NOT metabolized
Bacterial Biotransformation [40]: Compound NOT metabolized
Bacterial Biotransformation [41]: Compound NOT metabolized
Bacterial Biotransformation [42]: Compound NOT metabolized
Bacterial Biotransformation [43]: Compound NOT metabolized
Bacterial Biotransformation [44]: Compound NOT metabolized
Bacterial Biotransformation [45]: Compound NOT metabolized
Bacterial Biotransformation [46]: Compound NOT metabolized
Bacterial Biotransformation [47]: Compound NOT metabolized
Bacterial Biotransformation [48]: Compound NOT metabolized
Bacterial Biotransformation [49]: Compound NOT metabolized
Bacterial Biotransformation [50]: Compound NOT metabolized
Bacterial Biotransformation [51]: Compound NOT metabolized
Bacterial Biotransformation [52]: Compound NOT metabolized
Bacterial Biotransformation [53]: Compound NOT metabolized
Bacterial Biotransformation [54]: Compound NOT metabolized
Bacterial Biotransformation [55]: Compound NOT metabolized
Bacterial Biotransformation [56]: Compound NOT metabolized
Bacterial Biotransformation [57]: Compound NOT metabolized
Bacterial Biotransformation [58]: Compound NOT metabolized
Bacterial Biotransformation [59]: Compound NOT metabolized
Bacterial Biotransformation [60]: Compound NOT metabolized

Bacterial Biotransformation [1]: Compound metabolized
Bacterial Biotransformation [2]: Compound metabolized
Bacterial Biotransformation [3]: Compound metabolized
Bacterial Biotransformation [4]: Compound metabolized
Bacterial Biotransformation [5]: Compound metabolized
Bacterial Biotransformation [6]: Compound metabolized
Bacterial Biotransformation [7]: Compound metabolized
Bacterial Biotransformation [8]: Compound metabolized
Bacterial Biotransformation [9]: Compound metabolized
Bacterial Biotransformation [10]: Compound metabolized
Bacterial Biotransformation [11]: Compound metabolized
Bacterial Biotransformation [12]: Compound metabolized
Bacterial Biotransformation [13]: Compound metabolized
Bacterial Biotransformation [14]: Compound metabolized
Bacterial Biotransformation [15]: Compound metabolized
Bacterial Biotransformation [16]: Compound metabolized
Bacterial Biotransformation [17]: Compound metabolized
Bacterial Biotransformation [18]: Compound metabolized
Bacterial Biotransformation [19]: Compound NOT metabolized
Bacterial Biotransformation [20]: Compound metabolized
Bacterial Biotransformation [21]: Compound metabolized
Bacterial Biotransformation [22]: Compound metabolized
Bacterial Biotransformation [23]: Compound metabolized
Bacterial Biotransformation [24]: Compound metabolized
Bacterial Biotransformation [25]: Compound metabolized
Bacterial Biotransformation [26]: Compound metabolized
Bacterial Biotransformation [27]: Compound metabolized
Bacterial Biotransformation [28]: Compound metabolized
Bacterial Biotransformation [29]: Compound metabolized
Bacterial Biotransformation [30]: Compound metabolized
Bacterial Biotransformation [31]: Compound metabolized
Bacterial Biotransformation [32]: Compound metabolized
Bacterial Biotransformation [33]: Compound metabolized
Bacterial Biotransformation [34]: Compound metabolized
Bacterial Biotransformation [35]: Compound metabolized
Bacterial Biotransformation [36]: Compound metabolized
Bacterial Biotransformation [37]: Compound metabolized
Bacterial Biotransformation [38]: Compound metabolized
Bacterial Biotransformation [39]: Compound metabolized
Bacterial Biotransformation [40]: Compound metabolized
Bacterial Biotransformation [41]: Compound metabolized
Bacterial Biotransformation [42]: Compound metabolized
Bacterial Biotransformation [43]: Compound metabolized
Bacterial Biotransformation [44]: Compound metabolized
Bacterial Biotransformation [45]: Compound metabolized
Bacterial Biotransformation [46]: Compound metabolized
Bacterial Biotransformation [47]: Compound NOT metabolized
Bacterial Biotransformation [48]: Compound metabolized
Bacterial Biotransformation [49]: Compound metabolized
Bacterial Biotransformation [50]: Compound metabolized
Bacterial Biotransformation [51]: Compound metabolized
Bacterial Biotransformation [52]: Compound metabolized
Bacterial Biotransformation [53]: Compound metabolized
Bacterial Biotransformation [54]: Compound metabolized
Bacterial Biotransformation [56]: Compound metabolized
Bacterial Biotransformation [57]: Compound metabolized
Bacterial Biotransformation [58]: Compound metabolized
Bacterial Biotransformation [59]: Compound metabolized
Bacterial Biotransformation [60]: Compound metabolized
SMILES: CCOC(=O)C1=C(C)NC(C)=C(C(=O)OC)C1c1cccc([N+](=O)[O-])c1 (centres undefined) [NITRENDIPINE]
